Patent US12441727B2, “Tricyclic compounds as inhibitors of KRAS” (Incyte Corporation, priority 2021, dated 2025)

Assays:
[1] = system: KRAS_G12C pERK in MIA PaCa-2 cells; test: Whole Blood pERK1/2 HTRF assay (KRAS_G12C WB pERK assay); assay type: cell-based, human; details: Homo sapiens, compound in whole blood, 4 hours, read-out: G12C_WB_pERK
How it was run: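 MIA PaCa-2 (KRAS G12C) cells were grown 2 days, then exposed for 4 h at 37 °C to compound spiked into whole blood (0.5% DMSO). After PBS washes and lysis, phospho-ERK1/2 was read by HTRF at 665/620 nm, and the IC50 came from a curve fit.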

[2] = Human whole blood stability; assay type: in vitro ADME; details: percent remaining at 4 hr, 1 μM, 37° C.
Method: The whole blood stability of the exemplified compounds was determined by LC-MS/MS. The 96-Well Flexi-Tier™ Block (Analytical Sales & Services, Inc, Flanders, NJ) is used for the incubation plate containing 1.0 mL glass vials with 0.5 mL of blood per vial (pooled gender, human whole blood sourced from BIOIVT, Hicksville, NY or similar). Blood is pre-warmed in water bath to 37° C. for 30 minutes. 96-deep well analysis plate is prepared with the addition of 100 μL ultrapure water/well. 50 μL chilled ultrapure water/well is added to 96-deep well sample collection plate and covered with a sealing mat. 1 μL of 0.5 mM compound working solution (DMSO:water) is added to the blood in incubation plate to reach final concentrations of 1 μM, mixed by pipetting thoroughly and 50 μL is transferred 50 into the T=0 wells of the sample collection plate. Blood is allowed to sit in the water for 2 minutes and then 400 μL stop solution/well is added (acetonitrile containing an internal standard). The incubation plate is placed in the Incu-Shaker CO2 Mini incubator (Benchmark Scientific, Sayreville, NJ) at 37° C. with shaking at 150 rpm. At 1, 2 and 4-hr, the blood samples are mixed thoroughly by pipetting and 50 μL is transferred into the corresponding wells of the sample collection plate. Blood is allowed to sit in the water for 2 minutes and then 400 μL of stop solution/well is added. The collection plate is sealed and vortexed at 1700 rpm for 3 minutes (VX-2500 Multi-Tube Vortexer, VWR International, Radnor, PA), and samples are then centrifuged in the collection plate at 3500 rpm for 10 minutes (Allegra X-14R Centrifuge Beckman Coulter, Indianapolis, IN). 100 μL of supernatant/well is transferred from the sample collection plate into the corresponding wells of the analysis plate. The final plate is vortexed at 1700 rpm for 1 minute and analyze samples by LC-MS/MS. The peak area ratio of the 1, 2, and 4 hr samples relative to T=0 is used to determine the percent remaining. The natural log of the percent remaining versus time is used determine a slope to calculate the compounds half-life in blood (t1/2=0.693/slope).

KRAS_G12C pERK = test: Cellular pERK HTRF assay (KRAS_G12C pERK assay); assay type: cell-based, human; details: Homo sapiens, 4 h, KRAS G12C cells, 4 hours incubation with compound; read-out: G12C_pERK
How it was run: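 KRAS-mutant (G12C, G12D, G12V) and KRAS WT cancer cell lines, plated overnight in RPMI/10% FBS, were treated with compound (0.1% DMSO) at 37 °C for 4 h (G12C, G12V) or 2 h (G12D). Lysates were probed with anti-phospho-ERK1/2 HTRF antibody pair read at 665/620 nm; IC50 fitted.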

KRAS G12C = KRAS G12C (Homo sapiens, UniProt P01116, G12C); test: GDP-GTP exchange assay (KRAS_G12C exchange assay); assay type: biochemical; details: bodipy-loaded KRAS G12C 2.5 nM, SOS1 150 nM, 2 hours pre-incubation with inhibitor; read-out: G12C_exchange
How it was run: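 Bodipy-GDP-loaded KRAS G12C (2.5 nM final) preincubated 2 hours with compound in 25 mM Hepes pH 7.5, 50 mM NaCl, 10 mM MgCl2, 0.01% Brij-35; exchange started with 500 uM GppNHp and 150 nM SOS1, run 2 hours at ambient temperature. Fluorescence read at 485/520 nm; IC50 by four-parameter logistic fit.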

Sequence of KRAS G12C (P01116 1-188 isoform P01116-2 G12C): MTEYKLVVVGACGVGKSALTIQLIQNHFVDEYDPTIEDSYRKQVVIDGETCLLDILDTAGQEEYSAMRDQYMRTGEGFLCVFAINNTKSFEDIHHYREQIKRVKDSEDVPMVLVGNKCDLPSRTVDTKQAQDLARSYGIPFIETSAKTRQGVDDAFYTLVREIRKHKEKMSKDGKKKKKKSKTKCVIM

With `Cc1cc2c(nc(O[C@@H](C)[C@@H]3CCCN3C)c3nnn([C@H]4CCN(C(=O)/C=C/CF)[C@H](CC#N)C4)c32)c(F)c1-c1ccc2cnn(C)c2c1` [Example 7, 2-((2S,4S)-4-(6-fluoro-8-methyl-7-(1-methyl-1H-indazol-6-yl)-4-((S)-1-((S)-1-methylpyrrolidin-2-yl)ethoxy)-1H-[1,2,3]triazolo[4,5-c]quinolin-1-yl)-1-((E)-4-fluorobut-2-enoyl)piperidin-2-yl)acetonitrile] as the compound, how does the IC50 [1] read?
Its IC50 is no more than 50 nM.

What about the “Human whole blood stability at 4 hr” value [2] of the same compound?
Its value is “††† (WBS >90%)”.

And the IC50 (KRAS_G12C pERK)?
The IC50 was no more than 50 nM.

And the IC50 (KRAS G12C)?
The IC50 was no more than 50 nM.
